Laboratory results reported in patent US20050234046A1 (Kalypsys, Inc., priority 2004, published 2005).

Assays:
Test in all cases: Transient transfection (transactivation) assay in CV-1 cells, GAL4-PPAR chimera, luciferase reporter
Assay type in all cases: cell-based
[1] = target: T1, PPAR gamma (Homo sapiens, UniProt P37231)
T1 construct: expressed in transfected cells; host or cells: CV-1 cells
T1 sequence (P37231 238-503 limits assumed): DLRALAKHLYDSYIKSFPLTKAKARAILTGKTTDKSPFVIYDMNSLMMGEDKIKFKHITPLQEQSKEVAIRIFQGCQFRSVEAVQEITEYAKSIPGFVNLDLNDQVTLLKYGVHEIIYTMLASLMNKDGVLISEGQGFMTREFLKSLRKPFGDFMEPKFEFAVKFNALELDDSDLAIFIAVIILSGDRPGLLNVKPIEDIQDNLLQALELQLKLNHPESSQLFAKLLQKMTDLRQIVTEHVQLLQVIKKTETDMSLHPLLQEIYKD

[2] = target: T2, PPAR delta (Homo sapiens, UniProt Q03181)
T2 construct: expressed in transfected cells; host or cells: CV-1 cells
T2 sequence (Q03181 211-439 limits assumed): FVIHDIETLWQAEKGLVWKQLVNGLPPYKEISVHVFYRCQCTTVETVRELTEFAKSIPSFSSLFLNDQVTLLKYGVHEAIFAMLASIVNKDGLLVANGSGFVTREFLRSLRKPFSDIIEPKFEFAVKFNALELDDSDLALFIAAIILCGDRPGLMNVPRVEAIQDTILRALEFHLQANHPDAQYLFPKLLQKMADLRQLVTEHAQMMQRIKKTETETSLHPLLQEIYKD

[3] = target: T3, PPAR alpha (Homo sapiens, UniProt Q07869)
T3 construct: expressed in transfected cells; host or cells: CV-1 cells
T3 sequence (Q07869 239-466 limits assumed): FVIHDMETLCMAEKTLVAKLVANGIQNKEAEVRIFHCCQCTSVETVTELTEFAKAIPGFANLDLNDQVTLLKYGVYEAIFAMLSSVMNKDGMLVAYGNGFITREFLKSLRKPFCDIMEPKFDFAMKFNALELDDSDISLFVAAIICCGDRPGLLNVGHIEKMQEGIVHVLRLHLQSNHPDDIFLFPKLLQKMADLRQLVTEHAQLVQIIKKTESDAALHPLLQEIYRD
Method in brief: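 GAL4 DNA-binding domain fused to PPAR ligand binding domain, co-transfected into CV-1 cells with a luciferase reporter carrying four or five GAL4 sites. Replated cells in phenol-red free DME with 5% delipidated calf serum were treated with compound or 1% DMSO for 20-24 hours; luciferase read for EC50 and efficacy.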

`Cc1cc(CC(=O)O)cc(S(=O)(=O)N2C[C@@H](C)N(c3ccc(C(F)(F)F)cn3)[C@@H](C)C2)c1` [Example 228, 2-(3-(-3,5-Dimethyl-4-(5-(trifluoromethyl)pyridine-2-yl)piperazin-1-ylsulfonyl)-5-methylphenyl)acetic acid] was tested, and the EC50 [1] was < 5 µM, the EC50 [2] was < 5 µM and the EC50 [3] was 5 to 100 µM.

With `Cc1cc(CC(=O)O)cc(S(=O)(=O)N2[C@H](C)CN(c3ccc(C(F)(F)F)cn3)C[C@@H]2C)c1` [Example 229, {3-[2,6-Dimethyl-4-(5-trifluoromethyl-pyridin-2-yl)-piperazine-1-sulfonyl]-5-methyl-phenyl}-acetic acid] the EC50 [1] was > 100 µM, the EC50 [2] was < 5 µM and the EC50 [3] was > 100 µM.

With `O=C(O)Cc1c(F)ccc(S(=O)(=O)N2CCN(c3ccc(C(F)(F)F)cn3)CC2)c1F` [Example 230, {2,6-Difluoro-3-[4-(5-trifluoromethyl-pyridin-2-yl)-piperazine-1-sulfonyl]-phenyl}-acetic acid] the EC50 [1] was 5 to 100 µM, the EC50 [2] was < 5 µM and the EC50 [3] was 5 to 100 µM.

In the case of `C[C@@H]1CN(c2ccc(C(F)(F)F)cn2)C[C@H](C)N1S(=O)(=O)c1ccc(F)c(CC(=O)O)c1F` [Example 231, {3-[2,6-Dimethyl-4-(5-trifluoromethyl-pyridin-2-yl)-piperazine-1-sulfonyl]-2,6-difluoro-phenyl}-acetic acid], the EC50 [1] is reported as > 100 µM, the EC50 [2] is reported as 5 to 100 µM and the EC50 [3] is reported as > 100 µM.

`C[C@@H]1CN(c2ccc(OC(F)(F)F)cc2)C[C@H](C)N1S(=O)(=O)c1ccc(F)c(CC(=O)O)c1F` [Example 232, {3-[2,6-Dimethyl-4-(4-trifluoromethoxy-phenyl)-piperazine-1-sulfonyl]-2,6-difluoro-phenyl}-acetic acid] was tested, and the EC50 [1] was > 100 µM, the EC50 [2] was < 5 µM and the EC50 [3] was > 100 µM.

In the case of `Cc1cc(CC(=O)O)cc(S(=O)(=O)N2C3CCC2CN(c2ccc(OC(F)(F)F)cc2)C3)c1` [Example 233, {3-Methyl-5-[3-(4-trifluoromethoxy-phenyl)-3,8-diaza-bicyclo[3.2.1]octane-8-sulfonyl]-phenyl}-acetic acid], the EC50 [1] is reported as 5 to 100 µM, the EC50 [2] is reported as < 5 µM and the EC50 [3] is reported as 5 to 100 µM.
